Measured values as given in ChEMBL document CHEMBL1201862, “PubChem BioAssay data set” (2004).
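96-well plates; 48 h exposure; 5 concentrations. Endpoints by linear interpolation between flanking doses. Not reached: highest tested concentration assigned. The concentration for 50% growth inhibition is given as GI50.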 The source made the active and inactive calls. Rule as the data show it: active = GI50 up to about 1.1 µM and inactive = higher.

Tests used:
Experiment in all cases: NCI tumour cell line growth inhibition, 48 h
[1] = test system: MDA-N
[2] = test system: CAKI-1
[3] = test system: MDA-MB-435
[4] = test system: M14
[5] = test system: MDA-MB-231
[6] = test system: OVCAR-8
[7] = test system: A549
[8] = test system: SK-MEL-28
[9] = test system: ACHN
[10] = test system: DU-145
[11] = test system: SR
[12] = test system: M19-MEL
[13] = test system: LOX IMVI
[14] = test system: KM-20L2
[15] = test system: NCI-H522
[16] = test system: LXFL 529
[17] = test system: Malme-3M
[18] = test system: XF498
[19] = test system: HCT-116
[20] = test system: RXF 393

Measured: GI50

O=C1CCC[C@H]2O[C@@H](COC(=O)c3ccccc3)C[C@H]2O1
inactive: [1] > 100 µM | [2] > 100 µM | [3] > 100 µM | [4] > 100 µM | [5] > 100 µM | [6] > 100 µM | [7] > 100 µM | [8] > 100 µM | [9] > 100 µM | [10] > 100 µM | [11] > 100 µM

C1=C(c2ccccc2)SC(N2CCCCC2)S1 (centres undefined)
inactive: [12] 68.1 µM | [13] 72.9 µM | [4] > 100 µM | [14] > 100 µM | [15] 66.4 µM | [16] 77.3 µM | [17] 88.7 µM | [18] > 100 µM | [19] > 100 µM | [20] > 100 µM | [11] 90.8 µM

CN(C)C(=O)N(CCCl)N=O
inactive: [12] > 100 µM | [2] > 100 µM | [13] > 100 µM | [14] > 100 µM | [6] > 100 µM | [7] > 100 µM | [15] > 100 µM | [17] > 100 µM | [18] > 81.1 µM | [8] > 100 µM | [19] > 100 µM | [20] > 100 µM
